Reference: US5902726A, “Activators of the nuclear orphan receptor peroxisome proliferator-activated receptor gamma” (priority 1998, dated 1999)
Read-outs that look alike come from different tables or passages of the source.

What was measured:
[1] = molecular target: T1, GAL4-PPARγ chimera (ligand-binding domain of the murine PPARγ) (Mus musculus, UniProt P37238); test: Transient cotransfection assay: SPAP reporter; format: cell-based; settings: for fold induction at 10 µM: read-out: Fold Activation
T1 construct: transient in CV-1 cells with UAS-tk-SPAP reporter
T1 sequence (P37238 204-505): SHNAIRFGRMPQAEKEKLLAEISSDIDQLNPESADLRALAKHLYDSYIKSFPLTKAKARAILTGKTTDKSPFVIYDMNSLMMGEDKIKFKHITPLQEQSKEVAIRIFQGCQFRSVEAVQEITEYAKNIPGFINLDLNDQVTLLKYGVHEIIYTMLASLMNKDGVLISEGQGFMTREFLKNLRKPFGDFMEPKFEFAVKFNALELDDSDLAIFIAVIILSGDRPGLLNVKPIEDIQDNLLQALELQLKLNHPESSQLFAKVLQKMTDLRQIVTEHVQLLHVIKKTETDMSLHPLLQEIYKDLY
Description: A transient cotransfection assay was used to screen for activators of PPARγ. As mammalian cell lines contain endogenous nuclear receptors that can complicate interpretation of the results, we used an established chimera system in which the ligand-binding domain of the murine PPARγ was fused to the DNA binding domain of the yeast transcription factor GAL4. The GAL4-PPARγ chimera was cotransfected into CV-1 cells with a reporter construct containing five copies of the GAL4 binding site upstream of the thymidine kinase promoter driving secreted placental alkaline phosphatase (SPAP) as reporter.
GAL4-PPAR chimeras and UAS-tk-CAT/SPAP reporters.
CV-1 cells were plated in DME medium supplemented with 10% delipidated fetal calf serum at a density of 2.4×10^4 cells per well in a 96-well plate (Costar) 16-24 h before transfection. In general, 8.0 ng of reporter plasmid, 25.0 ng of β-galactosidase expression vector (pCH110, Pharamacia), and 2.0 ng of GAL4-PPARγ expression vector were mixed with carrier DNA (pBluescript, Stratagene) to a total of 80 ng of DNA per well in a volume of 10 μl optiME medium (GIBCO BRL). To this, a second mix, containing 9.3 μl optiME medium and 0.7 μl of LIPOFECTAMINE™ (GIBCO BRL), was added. After 30 min. an additional 80 μl of optiME medium were added and the combined mix was then applied to the cells.

GST-PPARγ LBD = molecular target: T2, GST-PPARγ LBD (Mus musculus, UniProt P37238); test: Saturation binding of radiolabeled ligand to GST-PPARγ LBD; parameters: species or system murine; settings: for non-specific binding: 500-fold excess of nontritiated compound
T2 construct: cDNA encoding amino acids 174 to 475 of PPARg1; made in house; host or cells: E. coli BL21 (DE3)plysS, crude bacterial extract
T2 sequence (P37238 174-475 isoform P37238-2): T1 sequence (P37238 204-505)
Protocol: (§1) To test for direct interactions between thiazolidinediones and PPARγ,the ligand binding domain of PPARγ was expressed in E. Coli as a fusion protein with glutathionine-S-transferase (GST-PPARγ LBD).
Bound was separated from free radioactivity by elution through 1 ml Sephadex G-25 desalting columns (Boehringer Mannheim). Bound radioactivity eluted in the column void volume and was quantitated by liquid scintillation counting.

[2] = tested on: glutathione-S-transferase; test: Binding control in extracts from bacteria expressing glutathione-S-transferase; settings: extracts from bacteria expressing glutathione-S-transferase alone
Description: as §1

pre-adipocyte cell lines = settings: cited from earlier work
[3] = tested on: enhancer/promoter of the lipid-binding protein aP2; settings: Harris and Kletzien, 1994; cited from earlier work
[4] = CV-1 cells, SPAP reporter, test compound at 10^-5 M, 24 h

Compound	fold induction at 10 µM [1, 4]	also measured
CN(CCOc1ccc(CC2SC(=O)NC2=O)cc1)c1ccccn1 (stereo not drawn) [5-{4-[2-(Methyl-pyridine-2-yl-amino)-ethoxy]-benzyl}-thiazolidine-2,4-dione]		Specific binding (GST-PPARγ LBD; at 100 nM tritiated ligand): 13,500 dpm; non-specific binding (GST-PPARγ LBD; at 100 nM tritiated ligand): 1,700 dpm; Specific binding (GST-PPARγ LBD; at 200 nM tritiated ligand): 14,500 dpm; non-specific binding (GST-PPARγ LBD; at 200 nM tritiated ligand): 1,900 dpm; Binding [2]: No binding was detected
CCCCCC(O)C=CC1C(O)CC2CC(=CCCCC(=O)O)CC21 (stereo not drawn) [5-[5-Hydroxy-4-(3-hydroxy-oct-1-enyl)-hexahydro-pentalen-2-ylidene]-pentanoic acid]		fold induction at 10 µM ([1]; CV-1, 24 h): 19.6
CCc1ccc(CCOc2ccc(CC3SC(=O)NC3=O)cc2)nc1 (stereo not drawn) [pioglitazone]		Expression of adipocyte-specific genes aP2 and adipsin and glucose transporter proteins GLUT-1 and GLUT-4 (pre-adipocyte cell lines): increased expression; Expression of chimeric aP2 enhancer/promoter CAT reporter gene [3]: stimulate expression
CC1(C)CCC(C)(C)c2cc3ncc(-c4ccccc4C(=O)O)cc3cc21 [2-(6,6,9,9-tetramethyl-6,7,8,9-tterahydro-benzo[g]quinolin-3-yl)-benzoic acid]	25.9	
Cc1cccc(Nc2cc(Cl)nc(SCC(=O)O)n2)c1C [{4-Chloro-6-(2,3-dimethyl-phenylamino)-pyrimidin-2-ylsulfanyl}-acetic acid]	25.7	
O=C(O)Cc1ccc2[nH]c(-c3ccccc3)c(CCc3ccccc3)c2c1 [(3-phenethyl-2-phenyl-1H-indol-5-yl)-acetic acid]	21.2	
CCCCCC(=O)C=CC1C(O)CC(=O)C1CCCCCCC(=O)O (stereo not drawn) [7-[43-Hydroxy-5-oxo-2-(3-oxo-oct-1-enyl)-cyclopentyl]-heptanoic acid]		Fold Activation ([1]; CV-1 cells, SPAP reporter, test compound at 10^-5 M, 24 h, 10 µM): 25.6
CCCc1c(-c2ccccc2)[nH]c2ccc(CC(=O)O)cc12 [(2-Phenyl-3-propyl-1H-indol-5-yl)-acetic acid]	21.7	
CCCCc1nc(Cl)c(C(=O)NCC(=O)OCC)n1Cc1ccc2oc(-c3ccccc3C(=O)O)c(Br)c2c1 [2-[3-Bromo-5-(2-butyl-4-chloro-5-ethoxycarbonylmethylcarbamoyl-imidazol-1-ylmethyl)-benzofuran-2-yl]-benzoic acid]	23.9	
O=C1NC(=O)C(Cc2ccc3c(c2)CCC(Cc2ccccc2)O3)S1 (stereo not drawn) [5-(2-Benzyl-chroman-6-ylmethyl)-thiazolidine-2,4-dione]	18.2	
CC1(COc2ccc(CC3SC(=O)NC3=O)cc2)CCCCC1 (stereo not drawn) [5-[4-(1-methyl-cyclohexylmethoxy)-benzyl)-thiazolidine-2,4-dione]	46.1	
CN(C)c1ccc(Cc2ccc(N(C)C)cc2CC(=O)O)cc1 [[5-Dimethylamino-2-(4-dimethylamino-benzyl)-phenyl]-acetic acid]	17.8	

Continued, in another order:

fold induction at 10 µM [1, 4]	Compound	also measured
11.3	CC(C)Oc1cc(CCCCC(=O)O)c(C=CC(=O)CCCCCC(=O)O)c(OC(C)C)c1 [9-[2-(4-Carboxy-butyl)-4,6-diisopropoxy-phenyl]-7-oxo-non-8-enoic acid]	
23.8	CCCCCC(O)C=CC1C(=O)CC(O)C1CC=CCCCC(=O)O (stereo not drawn) [7-[5-Hydroxy-2-(3-hydroxy-oct-1-enyl)-3-oxo-cyclopentyl]-hept-5-enoic acid]	
27	CCCCCC(C)c1ccc(C2=CCCC2CCCCCCC(=O)O)cc1 (stereo not drawn) [7-{2-[4-(1-Methyl-hexyl)-phenyl]-cyclopent-2-enyl}-heptanoic acid]	
24.6	O=C(O)CCCCCCC1=C(c2ccc(C(O)C3CCCC3)cc2)CCC1=O (stereo not drawn) [7-{2-[4-(Cyclopentyl-hydroxy-methyl)-phenyl]-5-oxo-cyclopent-1-enyl}-heptanoic acid]	
